US20030229451A1, “Methods and systems for analyzing complex biological systems” (priority 2001, published 2003)

Test system: Saccharomyces cerevisiae wild type strain BY4743
Experiment: AF1 metabolite analysis (GC-MS, LC-MS) of yeast cells treated with antifungal drugs
Type: cell-based
Details: for # Compounds perturbed: 2x MIC, two hours; for Fold Change of NacetylDglucosamine: metabolite NacetylDglucosamine; for Fold Change of NacetylLglutamate: metabolite NacetylLglutamate; for Fold Change of NacetylLornithine: metabolite NacetylLornithine; for Fold Change of nicotinic acid: metabolite nicotinic acid; for Fold Change of nopaline: metabolite nopaline; for Fold Change of oleic acid: metabolite oleic acid; for Fold Change of ornithine: metabolite ornithine; for Fold Change of phenylalanine: metabolite phenylalanine; for Fold Change of phosphoenolpyruvate: metabolite phosphoenolpyruvate; for Fold Change of pipecolic acid: metabolite pipecolic acid; for Fold Change of proline: metabolite proline; for Fold Change of pyridoxine: metabolite pyridoxine; for Fold Change of selenoDLmethionine: metabolite selenoDLmethionine; for Fold Change of serine: metabolite serine; for Fold Change of sugar-phosphate: metabolite sugar-phosphate; for Fold Change of tetradecanoic acid: metabolite tetradecanoic acid; for Fold Change of threonine/homoserin: metabolite threonine/homoserin; for Fold Change of thymine: metabolite thymine; for Fold Change of tryptophan: metabolite tryptophan; for Fold Change of tyrosine: metabolite tyrosine; for Fold Change of urocanic acid: metabolite urocanic acid; for Fold Change of valine: metabolite valine; for Fold Change of zeatin: metabolite zeatin

## CC[C@@H]([C@H](C)O)n1ncn(-c2ccc(N3CCN(c4ccc(OC[C@@H]5CO[C@@](Cn6cncn6)(c6ccc(F)cc6F)C5)cc4)CC3)cc2)c1=O [Posaconazole]
P < 0.05
  # Compounds perturbed: 3
P < 0.1
  # Compounds perturbed: 4
Metabolite 2-ketobutyric acid, platform nLC
  Fold Change: −0.9992
Metabolite 2-ketoglutaric, platform nLC
  Fold Change: 11.33
Metabolite 3-indolylacetonitri, platform nLC
  Fold Change: −0.9998
Metabolite 4-aminobenzoic acid, platform pLC
  Fold Change: 0
Metabolite 4-methylcatechol, platform nLC
  Fold Change: 0
Metabolite 4-methylcatechol, platform pLC
  Fold Change: 0
Metabolite 4ambutyrate/dimglyc, platform pLC
  Fold Change: 31.37
Metabolite 4aminobutyrate/dimg, platform nLC
  Fold Change: −0.008939
Metabolite 5hydroxyLtryptophan, platform nLC
  Fold Change: 0
Metabolite 5hydroxyLtryptophan, platform pLC
  Fold Change: 0
Metabolite 6-benzylaminopurine, platform nLC
  Fold Change: 0
Metabolite 6benzylaminopurine, platform pLC
  Fold Change: 0
Metabolite DLaminoadipic acid, platform nLC
  Fold Change: −0.9935
Platform nLC
  Fold Change of NacetylDglucosamine: 0
  Fold Change of NacetylLglutamate: −0.07165
  Fold Change of NacetylLornithine: 0
  Fold Change of nicotinic acid: 1.421
  Fold Change of nopaline: 0.7554
  Fold Change of oleic acid: 0.5606
  Fold Change of ornithine: 2.314
  Fold Change of phenylalanine: −0.03702
  Fold Change of phosphoenolpyruvate: 0
  Fold Change of pipecolic acid: 0.1806
  Fold Change of proline: 0.3147
  Fold Change of pyridoxine: −0.1015
  Fold Change of selenoDLmethionine: −0.6722
  Fold Change of serine: 0.152
  Fold Change of sugar-phosphate: −0.04543
  Fold Change of tetradecanoic acid: 1.029
  Fold Change of threonine/homoserin: 0.04034
  Fold Change of thymine: 0
  Fold Change of tryptophan: 4.676
  Fold Change of tyrosine: 0.0282
  Fold Change of urocanic acid: 0
  Fold Change of valine: 0.0195
  Fold Change of zeatin: 0
Platform pLC
  Fold Change of NacetylDglucosamine: 0
  Fold Change of NacetylLglutamate: 0
  Fold Change of NacetylLornithine: 0.1338
  Fold Change of nicotinic acid: −0.8142
  Fold Change of nopaline: 0
  Fold Change of ornithine: 0.4314
  Fold Change of phenylalanine: −0.1585
  Fold Change of phosphoenolpyruvate: 0
  Fold Change of pipecolic acid: 0.3444
  Fold Change of proline: 0.3157
  Fold Change of pyridoxine: −0.239
  Fold Change of selenoDLmethionine: −0.7083
  Fold Change of serine: 0.2417
  Fold Change of sugar-phosphate: 0
  Fold Change of threonine/homoserin: 0.1437
  Fold Change of thymine: 0
  Fold Change of tryptophan: 0
  Fold Change of tyrosine: 0.1008
  Fold Change of urocanic acid: 0
  Fold Change of zeatin: 0
Metabolite TMS mevalonic acid lactone, platform GC
  Fold Change of TMS mevalonic acid lactone: −0.3118
Metabolite abscisic acid, platform nLC
  Fold Change: 0
Metabolite abscisic acid, platform pLC
  Fold Change: 0
Metabolite aconitic acid, platform nLC
  Fold Change: 1.874
Metabolite adenine, platform nLC
  Fold Change: 0
Metabolite adenine, platform pLC
  Fold Change: −0.0145
Metabolite adenosine, platform nLC
  Fold Change: 128.3
Metabolite adenosine, platform pLC
  Fold Change: 0
Metabolite alanine/sarcosine, platform pLC
  Fold Change: 0.1013
Metabolite alanine, platform GC
  Fold Change: 1.035
Metabolite alanine, platform nLC
  Fold Change: 0.1091
Metabolite allantoic acid, platform nLC
  Fold Change: 0.3321
Metabolite allantoic acid, platform pLC
  Fold Change: 0
Metabolite allantoin, platform nLC
  Fold Change: 5.97
Metabolite anthranillic acid, platform nLC
  Fold Change: 0
Metabolite anthranillic acid, platform pLC
  Fold Change: 0
Metabolite arginine, platform nLC
  Fold Change: 0.1707
Metabolite arginine, platform pLC
  Fold Change: 0.03383
Metabolite argininosuccinate, platform nLC
  Fold Change: 318.3
Metabolite argininosuccinate, platform pLC
  Fold Change: 0
Metabolite asparagine, platform GC
  Fold Change: 0.145
Metabolite asparagine, platform nLC
  Fold Change: 0.006865
Metabolite asparagine, platform pLC
  Fold Change: 0.4302
Metabolite aspartic acid, platform GC
  Fold Change: −0.071
Metabolite aspartic acid, platform pLC
  Fold Change: 0.3626
Metabolite aspartic, platform nLC
  Fold Change: 0.305
Metabolite benzoic acid, platform nLC
  Fold Change: 0
Metabolite biotin, platform nLC
  Fold Change: −0.9992
Metabolite biotin, platform pLC
  Fold Change: 0
Metabolite caffeic acid, platform nLC
  Fold Change: −0.49
Metabolite caffeine, platform pLC
  Fold Change: 0
Metabolite campesterol, platform GC
  Fold Change: 0
Metabolite catechol, platform nLC
  Fold Change: 0
Metabolite cinnamic acid, platform nLC
  Fold Change: 0
Metabolite citric acid TME, platform pLC
  Fold Change: 0
Metabolite citricanoic/itaconi, platform nLC
  Fold Change: 0
Metabolite citrulline, platform nLC
  Fold Change: 1160
Metabolite citrulline, platform pLC
  Fold Change: 0.1011
Metabolite coumaric acid, platform nLC
  Fold Change: 0
Metabolite cytidine, platform nLC
  Fold Change: −0.9986
Metabolite cytidine, platform pLC
  Fold Change: 0
Metabolite cytosine, platform nLC
  Fold Change: 0
Metabolite cytosine, platform pLC
  Fold Change: 1135
Metabolite decanoic acid, platform nLC
  Fold Change: 0.1263
Metabolite desmosterol, platform GC
  Fold Change: 0
Metabolite diaminopimelic acid, platform nLC
  Fold Change: 0
Metabolite diaminopimelic acid, platform pLC
  Fold Change: 0
Metabolite dihydrofolic acid, platform nLC
  Fold Change: 0
Metabolite dihydrofolic acid, platform pLC
  Fold Change: 0
Metabolite dipicolinic acid, platform pLC
  Fold Change: 0
Metabolite disaccaride1, platform GC
  Fold Change: 0.04733
Metabolite disaccaride2, platform GC
  Fold Change: 0.313
Metabolite disaccaride3, platform GC
  Fold Change: 0.3407
Metabolite mevalonic acid lactone, platform GC
  Fold Change of mevalonic acid lactone: 0.5555
Metabolite mevalonic lactone, platform pLC
  Fold Change of mevalonic lactone: −0.08368
Metabolite niacinamide, platform pLC
  Fold Change of niacinamide: 0
Metabolite octadecanoic acid, platform GC
  Fold Change of octadecanoic acid: 0.321
Platform GC
  Fold Change of oleic acid: −0.5057
  Fold Change of phenylalanine: 0.06069
  Fold Change of tetradecanoic acid: −0.214
  Fold Change of valine: 0.345
Metabolite ornithine2, platform GC
  Fold Change of ornithine2: −0.1383
Metabolite ornithine3, platform GC
  Fold Change of ornithine3: 0.041
Metabolite orotic acid, platform nLC
  Fold Change of orotic acid: 0
Metabolite palmiteliadic acid, platform GC
  Fold Change of palmiteliadic acid: −0.2453
Metabolite palmitic acid, platform nLC
  Fold Change of palmitic acid: 0.1518
Metabolite phenylpyruvic acid, platform nLC
  Fold Change of phenylpyruvic acid: 0
Metabolite phosphate, platform GC
  Fold Change of phosphate: −0.1833
Metabolite pinitol, platform nLC
  Fold Change of pinitol: 0
Metabolite porphobilinogen, platform nLC
  Fold Change of porphobilinogen: 0
Metabolite progesterone, platform pLC
  Fold Change of progesterone: 0
Metabolite pyrimidine, platform GC
  Fold Change of pyrimidine: 0.159
Metabolite retinoic acid, platform nLC
  Fold Change of retinoic acid: 0
Metabolite riboflavin, platform pLC
  Fold Change of riboflavin: 0
Metabolite salicylic/HObenzoic, platform nLC
  Fold Change of salicylic/HObenzoic: 0
Metabolite shikimic acid, platform nLC
  Fold Change of shikimic acid: 0
Metabolite sinapinic acid, platform nLC
  Fold Change of sinapinic acid: 0
Metabolite sorbitol/mannitol, platform nLC
  Fold Change of sorbitol/mannitol: 0.009121
Metabolite squalene, platform GC
  Fold Change of squalene: 0.07431
Metabolite succinic, platform nLC
  Fold Change of succinic: −0.06141
Metabolite sucrose, platform nLC
  Fold Change of sucrose: 0.1847
Metabolite thiamine, platform pLC
  Fold Change of thiamine: 0
Metabolite threonine2, platform GC
  Fold Change of threonine2: 0.457
Metabolite threonine3, platform GC
  Fold Change of threonine3: 0.225
Metabolite tms glutamine3, platform GC
  Fold Change of tms glutamine3: 0.6709
Metabolite tms lysine4, platform GC
  Fold Change of tms lysine4: 0.05667
Metabolite tms tyrosine2, platform GC
  Fold Change of tms tyrosine2: 1.228
Metabolite tms tyrosine3, platform GC
  Fold Change of tms tyrosine3: 0.1911
Metabolite uracil, platform nLC
  Fold Change of uracil: −0.2779
Metabolite uric acid, platform pLC
  Fold Change of uric acid: 0
Metabolite uridine, platform nLC
  Fold Change of uridine: 0.02855
Metabolite xanthosine(diH2O), platform pLC
  Fold Change of xanthosine(diH2O): 0
Metabolite xanthosineDiH2O, platform nLC
  Fold Change of xanthosineDiH2O: 0
